Results published in ChEMBL document CHEMBL1201862, “PubChem BioAssay data set” (2004).
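Step 1: Grow cells in 96-well plates. Step 2: Expose to compound for 48 hours at 5 concentrations. Step 3: Interpolate endpoints linearly; if unreached, use highest concentration. GI50 marks 50% less growth.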 Activity calls are given as the source filed them. Rule as the data show it: active = GI50 up to about 1.1 µM and inactive = higher.

Assays:
Experiment in all cases: growth of human tumour cells (NCI), 48 h
RPMI-8226 = system: RPMI-8226
HT-29 = system: HT-29
MDA-N = system: MDA-N
OVCAR-4 = system: OVCAR-4
U-251 = system: U-251
MDA-MB-231 = system: MDA-MB-231
SR = system: SR
SK-MEL-28 = system: SK-MEL-28
A549 = system: A549
CCRF-CEM = system: CCRF-CEM
BT-549 = system: BT-549
LOX IMVI = system: LOX IMVI
SK-MEL-5 = system: SK-MEL-5
OVCAR-5 = system: OVCAR-5
UO-31 = system: UO-31
SNB-75 = system: SNB-75
OVCAR-3 = system: OVCAR-3
K562 = system: K562
SK-OV-3 = system: SK-OV-3

SMILES | GI50 (RPMI-8226) | GI50 (HT-29) | GI50 (MDA-N) | GI50 (OVCAR-4) | GI50 (U-251) | GI50 (MDA-MB-231) | GI50 (SR) | GI50 (SK-MEL-28) | GI50 (A549) | GI50 (CCRF-CEM) | GI50 (BT-549) | GI50 (LOX IMVI) | GI50 (SK-MEL-5) | GI50 (OVCAR-5) | GI50 (UO-31) | GI50 (SNB-75) | GI50 (OVCAR-3) | GI50 (K562) | GI50 (SK-OV-3)
c1ccc(CSP234N5CCN2CCN3CCN4CC5)c(CSP234N5CCN2CCN3CCN4CC5)c1 | 27.7 µM (inactive) | 37.2 µM (inactive) | 13.4 µM (inactive) | > 100 µM (inactive) | > 100 µM (inactive) | > 100 µM (inactive) | 30.8 µM (inactive) | > 100 µM (inactive) | > 100 µM (inactive) | 45.4 µM (inactive) | > 100 µM (inactive) | > 100 µM (inactive) | 55 µM (inactive) | > 100 µM (inactive) | 81.1 µM (inactive) | 28.3 µM (inactive) | > 100 µM (inactive) | – | –
O=C1Cc2c(-c3ccc(Cl)cc3)cc(-c3ccccc3)nc2-c2ccccc2N1 | 9.25 µM (inactive) | 4.5 µM (inactive) | 9.35 µM (inactive) | 6.62 µM (inactive) | 3.08 µM (inactive) | 4.35 µM (inactive) | 7.13 µM (inactive) | 4.67 µM (inactive) | 5.66 µM (inactive) | 6.35 µM (inactive) | 21.4 µM (inactive) | 6.56 µM (inactive) | 5.15 µM (inactive) | 16.2 µM (inactive) | 4.34 µM (inactive) | 3.82 µM (inactive) | 11.7 µM (inactive) | 15.1 µM (inactive) | 4.46 µM (inactive)
O=C1Sc2cc3ccccc3cc2C(=O)Sc2ccc(Br)cc21 | 1.65 µM (inactive) | 3.41 µM (inactive) | 4.51 µM (inactive) | 14.6 µM (inactive) | 2.06 µM (inactive) | 4.09 µM (inactive) | 2.45 µM (inactive) | 3.13 µM (inactive) | 8.89 µM (inactive) | 1.12 µM (active) | 3.29 µM (inactive) | 1.76 µM (inactive) | 8.3 µM (inactive) | 11.8 µM (inactive) | – | 4.84 µM (inactive) | 1.79 µM (inactive) | 4.17 µM (inactive) | 15.5 µM (inactive)
COc1cc(/C=N/n2c(-c3ccccc3)nn(C(C)=O)c2=O)cc(OC)c1OC | 1.49 µM (inactive) | 0.405 µM (active) | 0.228 µM (active) | 9.91 µM (inactive) | 3 µM (inactive) | 4.61 µM (inactive) | 0.0875 µM (active) | 7.13 µM (inactive) | 3.2 µM (inactive) | 2.23 µM (inactive) | 8.55 µM (inactive) | 2.72 µM (inactive) | 0.675 µM (active) | 20 µM (inactive) | 1.57 µM (inactive) | 3.01 µM (inactive) | 0.69 µM (active) | 0.557 µM (active) | 4.2 µM (inactive)
CCc1nn(CN2CCN(C)CC2)c(=S)n1/N=C\c1ccc(-c2ccc([N+](=O)[O-])cc2)o1 | 39.5 µM (inactive) | > 100 µM (inactive) | 94 µM (inactive) | 44 µM (inactive) | 43.6 µM (inactive) | 39.1 µM (inactive) | 64.1 µM (inactive) | – | 36.2 µM (inactive) | 22.5 µM (inactive) | 37 µM (inactive) | 59 µM (inactive) | 40.5 µM (inactive) | > 100 µM (inactive) | 56.6 µM (inactive) | – | 30.6 µM (inactive) | 40 µM (inactive) | 40.7 µM (inactive)
CC[S+]([O-])c1c2cc(OC)ccc2nc2ccc(OC)cc12 (stereo not drawn) | 3.45 µM (inactive) | 4.09 µM (inactive) | 4.71 µM (inactive) | 17 µM (inactive) | 16.7 µM (inactive) | 5.62 µM (inactive) | 3.51 µM (inactive) | 7.91 µM (inactive) | 22.6 µM (inactive) | 3.79 µM (inactive) | 17.5 µM (inactive) | 2.58 µM (inactive) | 16.4 µM (inactive) | 17.8 µM (inactive) | 4.82 µM (inactive) | 21 µM (inactive) | 6 µM (inactive) | 2.42 µM (inactive) | 24.1 µM (inactive)
COc1ccc(NC(=S)N/N=C(\C)c2nc3cccnc3[nH]2)cc1 | 4.35 µM (inactive) | 5.37 µM (inactive) | 11.7 µM (inactive) | 4.94 µM (inactive) | 3.87 µM (inactive) | 5.9 µM (inactive) | 3.86 µM (inactive) | 6.46 µM (inactive) | 5.53 µM (inactive) | 2.45 µM (inactive) | 4.57 µM (inactive) | 3.18 µM (inactive) | 4.33 µM (inactive) | 6.11 µM (inactive) | 1.97 µM (inactive) | 12.5 µM (inactive) | 1.79 µM (inactive) | 3.58 µM (inactive) | 13.5 µM (inactive)
Clc1nc(-c2ccccc2)nc(Cl)c1Cl | 4.29 µM (inactive) | 9.89 µM (inactive) | 13 µM (inactive) | 16 µM (inactive) | 8.28 µM (inactive) | 13.7 µM (inactive) | 2.69 µM (inactive) | 16.8 µM (inactive) | 15.4 µM (inactive) | 2.54 µM (inactive) | 20.6 µM (inactive) | 2.26 µM (inactive) | 13.4 µM (inactive) | 15.8 µM (inactive) | 40.8 µM (inactive) | 15.7 µM (inactive) | 8.38 µM (inactive) | 3.76 µM (inactive) | 14 µM (inactive)
CC(=O)ON(C(C)=O)c1ccc(-c2nc3ccccc3s2)cc1C | 48.2 µM (inactive) | 32 µM (inactive) | 75.5 µM (inactive) | 51.4 µM (inactive) | 10.4 µM (inactive) | 33.8 µM (inactive) | 29.2 µM (inactive) | 76.4 µM (inactive) | 28.7 µM (inactive) | 23.7 µM (inactive) | 70.5 µM (inactive) | 37.4 µM (inactive) | 21.5 µM (inactive) | 4.28 µM (inactive) | 50.2 µM (inactive) | 74.1 µM (inactive) | 25.8 µM (inactive) | 45.2 µM (inactive) | –
Cc1ccc(C(=O)/C=C2\Nc3ccccc3SC2=O)c(C)c1 | 28.5 µM (inactive) | 45.6 µM (inactive) | 62.2 µM (inactive) | 26.5 µM (inactive) | 44.9 µM (inactive) | > 100 µM (inactive) | 28.3 µM (inactive) | 51.1 µM (inactive) | 53.3 µM (inactive) | 36.3 µM (inactive) | 6.9 µM (inactive) | 37.4 µM (inactive) | 38.5 µM (inactive) | > 100 µM (inactive) | 32.5 µM (inactive) | – | 34.1 µM (inactive) | 41.3 µM (inactive) | 43.9 µM (inactive)
N#CC(C#N)=CNC(=S)c1ccncc1 | 36.9 µM (inactive) | 46.9 µM (inactive) | > 100 µM (inactive) | > 100 µM (inactive) | > 100 µM (inactive) | > 100 µM (inactive) | 18.7 µM (inactive) | > 100 µM (inactive) | > 100 µM (inactive) | 34.5 µM (inactive) | 11.2 µM (inactive) | > 100 µM (inactive) | 48.4 µM (inactive) | > 100 µM (inactive) | 5.6 µM (inactive) | 35.4 µM (inactive) | 0.117 µM (active) | 39.1 µM (inactive) | > 100 µM (inactive)
CSC1(Cc2ccccn2)C(=O)Nc2cccc([N+](=O)[O-])c21 (stereo not drawn) | 78 µM (inactive) | > 100 µM (inactive) | > 100 µM (inactive) | > 100 µM (inactive) | > 100 µM (inactive) | > 100 µM (inactive) | > 100 µM (inactive) | 55.5 µM (inactive) | > 100 µM (inactive) | 48 µM (inactive) | > 100 µM (inactive) | 53.5 µM (inactive) | > 100 µM (inactive) | > 100 µM (inactive) | > 100 µM (inactive) | > 100 µM (inactive) | > 100 µM (inactive) | – | > 100 µM (inactive)
CC(=O)Nc1ccc(-c2nc3ccccc3s2)cc1Cl | > 100 µM (inactive) | > 95.5 µM (inactive) | > 100 µM (inactive) | > 100 µM (inactive) | > 84.1 µM (inactive) | 67.8 µM (inactive) | > 100 µM (inactive) | > 100 µM (inactive) | 99.8 µM (inactive) | > 100 µM (inactive) | > 75.9 µM (inactive) | > 86.5 µM (inactive) | > 100 µM (inactive) | 0.171 µM (active) | 27.7 µM (inactive) | 36.7 µM (inactive) | – | > 100 µM (inactive) | 40.6 µM (inactive)
COc1ccc2c(c1)N=C1CSC(c3ccccc3Cl)N1C2 (stereo not drawn) | 12.2 µM (inactive) | 4.82 µM (inactive) | 6.17 µM (inactive) | 14.1 µM (inactive) | 10.8 µM (inactive) | 27.4 µM (inactive) | 0.929 µM (active) | 17.6 µM (inactive) | 10.4 µM (inactive) | – | 43.2 µM (inactive) | 6.55 µM (inactive) | 17.1 µM (inactive) | 8.97 µM (inactive) | 0.351 µM (active) | 9.91 µM (inactive) | – | 7.82 µM (inactive) | 15.1 µM (inactive)
O=C(/C=C1\C[C@H]2C=Nc3ccccc3C(=O)N2C1)NCCCNC(=O)/C=C1\C[C@H]2C=Nc3ccccc3C(=O)N2C1 | 10.1 µM (inactive) | 16.4 µM (inactive) | 17.1 µM (inactive) | 18.2 µM (inactive) | 13.6 µM (inactive) | 16.1 µM (inactive) | 2.11 µM (inactive) | 18.9 µM (inactive) | 21.1 µM (inactive) | – | 16.4 µM (inactive) | 6.25 µM (inactive) | 16.1 µM (inactive) | 21.2 µM (inactive) | 14.7 µM (inactive) | 16.2 µM (inactive) | 12 µM (inactive) | 5.96 µM (inactive) | 18.5 µM (inactive)
